Assay results published in patent US20110251379A1, “COMPOUNDS USEFUL FOR TREATING NEURODEGENERATIVE DISORDERS” (Satori Pharmaceuticals, Inc., priority 2010, published 2011).

System: amyloid-beta (1-42) peptide
Test: ELISA assay of amyloid-beta (1-42) in conditioned media of 2B7 cells
Format: cell-based
Settings: 5 h, Aβ-42, 2B7 cells, 5 hours; read-out: IC50 range
Protocol: Compounds of the present invention, and extracts comprising said compounds, may be assayed as inhibitors of amyloid-beta (1-42) peptide in vitro or in vivo. Such assay methods are described in detail in U.S. Pat. No. 6,649,196, the entirety of which is hereby incorporated herein by reference.
In certain embodiments, provided compounds of the present invention, and extracts comprising said compounds, were assayed as inhibitors of amyloid-beta (1-42) peptide in vitro using an ELISA assay.
Capture Plate Prep: • 6E10 was diluted to 5.0 ug/mL in 100 mM NaHCO3 pH 8.2 (10 ug aliquot per 2 mL buffer); • 100 uL capture antibody solution was added to wells of 96 well plate; • Incubated overnight at 4° C. sealed; • Aspirated off capture antibody; and • Blocked with 250 uL of Blocking Buffer for 2-4 hours at rt sealed.
Conditioned Media: • Cultured 2B7 cells in 96 well plate with 250 uL of media per well until confluent; • Prepared serial dilution of compounds in DMSO at 100× the final desired concentration; • Washed wells with 2B7 cells lx with 250 uL of media; • Diluted DMSO stocks 1:100 into media and mix; and • Added 250 μL of media containing compounds (1% DMSO) to wells with 2B7 cells for 5 hours at 37° C.
Elisa Sample Prep: • Diluted conditioned media 1:2 into blocking buffer; • NOTE: If assaying for A-Beta 1-40 or total A-Beta, then diluted above sample 1:10 with a 50/50 mixture of non-conditioned media containing 1% DMSO and blocking buffer.
Standard Curve Sample Prep: • Diluted appropriate A-Beta peptide stock (stored in 1% NH4OH) to 200 μg/mL in blocking buffer; • Prepared a 1:2 serial dilution from the 200 μg/mL sample (150 μL into 150 μL blocking buffer); and • Added equal volume of standard curve samples to non-conditioned media with 1% DMSO.
Overnight Sample Incubation: • Aspirated blocking buffer from blocked plate; • Added 100 μL of samples to wells of plate (samples will be 50% media with 1% DMSO and 50% blocking buffer; and • Incubated overnight at 4° C. sealed.
Addition of Detection Antibody: • Aspirated off samples, wash 2× with 250 μL blocking buffer; and • Added 100 μL detection antibody labeled with HRP at 0.25 ug/mL in blocking buffer for 4 hours at room temperature sealed.
Final Wash and Readout: • Aspirated wells, wash 5× with 250 μL of PBS-T (2 minutes each wash at 30 RPM); • Added 100 μL TMB for 20 minutes; • Added 100 μL of 1M H3PO4; and • Read at 450 nm.
Coating Buffer (100 mM NaHCO3 pH 8.2)
PBS-T (PBS with 0.05% Tween-20)
Blocking Buffer (1% BSA in PBS-T)

Row | SMILES | IC50 [µM]
1 | CC(=O)O[C@H]1CC[C@]23C[C@]24CC[C@]2(C)C5[C@H](C)C[C@H]([C@H](OC(C)=O)C(C)(C)O)O[C@@H]5[C@H](O)[C@@]2(C)[C@@H]4CC[C@H]3C1(C)C (some centres unmarked) | ≤ 1
2 | CC(=O)O[C@@H]([C@H]1C[C@@H](C)[C@H]2[C@H](O1)[C@H](O)[C@@]1(C)[C@@H]3CC[C@H]4C(C)(C)C(OC(=O)[C@@H]5CCCN5)CC[C@@]45C[C@@]35CC[C@]21C)C(C)(C)O (some centres unmarked) | ≤ 1
3 | CC(=O)O[C@@H]([C@H]1C[C@@H](C)[C@H]2[C@H](O1)[C@H](O)[C@@]1(C)[C@@H]3CC[C@H]4C(C)(C)C(OC(=O)c5ccncc5)CC[C@@]45C[C@@]35CC[C@]21C)C(C)(C)O (some centres unmarked) | ≤ 1
4 | CC(=O)O[C@@H]([C@H]1C[C@@H](C)C2C(O1)[C@H](O)[C@@]1(C)[C@@H]3CC[C@H]4C(C)(C)[C@@H](OCC(=O)O)CC[C@@]45C[C@@]35CC[C@]21C)C(C)(C)O (some centres unmarked) | 1 to 10
5 | C[C@@H]1C[C@H]([C@H](O)C(C)(C)O)OC2=C1[C@@]1(C)CC[C@@]34C[C@@]35CC[C@H](O[C@@H]3OC[C@@H](O)[C@H](O)[C@H]3O)C(C)(C)[C@@H]5CC[C@H]4[C@]1(C)[C@H]2O | 1 to 10
6 | CC(=O)O[C@@H]([C@H]1C[C@@H](C)C2C(O1)[C@H](O)[C@@]1(C)[C@@H]3CC[C@H]4C(C)(C)[C@@H](OC(=O)CN(C)C)CC[C@@]45C[C@@]35CC[C@]21C)C(C)(C)O (some centres unmarked) | ≤ 1
7 | CC(=O)O[C@@H]([C@H]1C[C@@H](C)[C@H]2[C@H](O1)C1(SCCS1)[C@@]1(C)C3CCC4C(C)(C)[C@@H](O)CC[C@]4(C)C3=CC[C@]21C)C(C)(C)O (some centres unmarked) | 1 to 10
8 | CC(=O)O[C@@H]([C@H]1C[C@@H](C)C2C(O1)C(=O)[C@@]1(C)[C@@H]3CC[C@H]4C(C)(C)[C@@H](O[C@@H]5OC[C@@H](O)[C@H](O)[C@H]5O)CC[C@@]45C[C@@]35CC[C@]21C)C(C)(C)O (some centres unmarked) [drawing 895] | > 1
9 | CC(=O)O[C@@H]([C@H]1C[C@@H](C)[C@H]2[C@H](O1)[C@H](O)[C@@]1(C)[C@@H]3CC[C@H]4C(C)(C)[C@@H](O[C@@H](CN(C)C)OCCN(C)C)CC[C@@]45C[C@@]35CC[C@]21C)C(C)(C)O | 1 to 10
10 | CC(=O)O[C@@H]([C@H]1C[C@@H](C)[C@H]2[C@H](O1)[C@H](O)[C@@]1(C)[C@@H]3CC[C@H]4C(C)(C)[C@@H](O[C@H]5CN(C6CCC6)CCO5)CC[C@@]45C[C@@]35CC[C@]21C)C(C)(C)O | ≤ 1
11 | CC(=O)O[C@@H]([C@H]1C[C@@H](C)[C@H]2[C@H](O1)[C@H](O)[C@@]1(C)[C@@H]3CC[C@H]4C(C)(C)C(OC(N)=O)CC[C@@]45C[C@@]35CC[C@]21C)C(C)(C)O (some centres unmarked) [drawing 964] | ≤ 1
12 | CC(=O)O[C@@H]([C@H]1C[C@@H](C)[C@H]2[C@H](O1)[C@H](O)[C@@]1(C)[C@@H]3CC[C@H]4C(C)(C)[C@@H](O[C@H]5CN(CCOCCOCCNC(=O)CCCC[C@@H]6SC[C@@H]7NC(=O)N[C@@H]76)CCO5)CC[C@@]45C[C@@]35CC[C@]21C)C(C)(C)O | ≤ 1

Same assay, conditions: Aβ-42, 10 umol/L; read-out: % Inhibition (range)

Row | SMILES | inhibition at 10 µM [%]
13 | C[C@@H]1C(O)CO[C@@]2(O)C[C@H]3[C@@H]4CC=C5C[C@@H](O[Si](C)(C)C(C)(C)C)CC[C@]5(C)[C@H]4CC[C@]3(C)[C@@H]12 (some centres unmarked) | < 25
14 | CC(=O)O[C@H]1CC[C@]23C[C@]24CC[C@]2(C)C5C(C[C@@]2(C)C4CCC3C1(C)C)OC(O)(C(F)(F)F)C[C@H]5C (some centres unmarked) | < 25
15 | CC(=O)O[C@H]1CC[C@]23C[C@]24CC[C@]2(C)C5C(C[C@@]2(C)[C@@H]4CC[C@H]3C1(C)C)OC(C(F)(F)F)=C[C@H]5C (some centres unmarked) | < 25

Same assay, conditions: Aβ-42, 20 umol/L

Row | SMILES | % Inhibition (range)
16 | CC1CC(C(O)C(C)(C)O)OC2C1C1(C)CCC34CC35CCC(OC3CN(C(=O)CC6CCOCC6)CCO3)C(C)(C)C5CCC4C1(C)C2O (centres unmarked) | F (% inhibition of <25%)
17 | CC1CC(C(O)C(C)(C)O)OC2C1C1(C)CCC34CC35CCC(OC3CN(CCCC(=O)O)CCO3)C(C)(C)C5CCC4C1(C)C2O (centres unmarked) | E E (% inhibition of 25-75%)
18 | CC1CC(C(O)C(C)(C)O)OC2C1C1(C)CCC34CC35CCC(OC3CN(C(=O)C6CC6)CCO3)C(C)(C)C5CCC4C1(C)C2O (centres unmarked) | E (% inhibition of 25-75%)

Same assay, conditions: Aβ-42, 20 umol/L; read-out: % Inhibition (range)

Row | SMILES | inhibition at 20 µM [%]
19 | C[C@@H]1C[C@H]([C@H](O)C(C)(C)O)OC2C1[C@@]1(C)CC[C@@]34C[C@@]35CC[C@H](O)C(C)(C)[C@@H]5CC[C@H]4[C@]1(C)[C@H]2O (some centres unmarked) [drawing 889] | < 25

Same assay, conditions: Aβ-42, 100 umol/L

Row | SMILES | % Inhibition (range)
20 | CC1CC(C(O)C(C)(C)O)OC2C1C1(C)CCC34CC35CCC(OC3CN(CCCC(=O)O)CCO3)C(C)(C)C5CCC4C1(C)C2O (centres unmarked) | E E (% inhibition of 25-75%)

Same assay, conditions: Aβ-42, 100 umol/L; read-out: % Inhibition (range)

Row | SMILES | inhibition at 100 µM [%]
21 | C[C@@H]1C[C@H](CO)OC2C1[C@@]1(C)CC[C@@]34C[C@@]35CC[C@H](O)C(C)(C)[C@@H]5CC[C@H]4[C@]1(C)[C@H]2O (some centres unmarked) | < 25
22 | C[C@@H]1C[C@H]([C@H](O)C(C)(C)O)OC2C(=O)[C@@]3(C)[C@@H]4CC[C@H]5C(C)(C)[C@@H](O)CC[C@@]56C[C@@]46CC[C@]3(C)C21 (some centres unmarked) [drawing 894] | 25 to 75

Same assay, conditions: Aβ-42, 2B7 cells, 5 hours; read-out: IC50 range

Row | SMILES | IC50 [µM]
23 | CC(=O)N(Cc1ccncc1)CC1CC(C)C2C(O1)C(O)C1(C)C3CCC4C(C)(C)C(O)CCC45CC35CCC21C (centres unmarked) | > 10
24 | CC1CC(CN(C)C(=O)C(C)(C)C)OC2C1C1(C)CCC34CC35CCC(OC(=O)c3cccnc3)C(C)(C)C5CCC4C1(C)C2O (centres unmarked) | > 10
25 | CC1CC(CNCC(F)(F)F)OC2C1C1(C)CCC34CC35CCC(O)C(C)(C)C5CCC4C1(C)C2O (centres unmarked) | > 10
26 | CC1CC(CCC(=O)O)OC2C1C1(C)CCC34CC35CCC(OC3CN(C(=O)CC6CC6)CCO3)C(C)(C)C5CCC4C1(C)C2O (centres unmarked) | 1 to 10
27 | CC1CC(C(=O)NCc2ccccc2)OC2C1C1(C)CCC34CC35CCC(O)C(C)(C)C5CCC4C1(C)C2O (centres unmarked) | > 10
28 | CC(=O)N(Cc1cc(F)cc(F)c1)CC1CC(C)C2C(O1)C(O)C1(C)C3CCC4C(C)(C)C(OC(=O)c5ccccn5)CCC45CC35CCC21C (centres unmarked) | 1 to 10
29 | CC(=O)N(CC1CC(C)C2C(O1)C(O)C1(C)C3CCC4C(C)(C)C(O)CCC45CC35CCC21C)C(C)c1ccccc1 (centres unmarked) [drawing 851] | 1 to 10
30 | C[C@@H]1C[C@H]([C@H](O)C(C)(C)O)OC2C1[C@@]1(C)CC[C@@]34C[C@@]35CC[C@H](O)C(C)(C)[C@@H]5CC[C@H]4[C@]1(C)[C@H]2O (some centres unmarked) [drawing 889] | > 10
31 | CC1CC(CN2C(=O)OCC2(C)C)OC2C1C1(C)CCC34CC35CCC(O)C(C)(C)C5CCC4C1(C)C2O (centres unmarked) | > 10
32 | CC1CC(C(O)C(C)(C)O)OC2C1C1(C)CCC34CC35CCC(OC3CN(CCCC(=O)O)CCO3)C(C)(C)C5CCC4C1(C)C2O (centres unmarked) | > 10
33 | CC1CC(CN(C2COC2)S(C)(=O)=O)OC2C1C1(C)CCC34CC35CCC(O)C(C)(C)C5CCC4C1(C)C2O (centres unmarked) | > 10
34 | CC(=O)N(CC1CC(C)C2C(O1)C(O)C1(C)C3CCC4C(C)(C)C(OC(=O)c5cccnc5)CCC45CC35CCC21C)C(C)(C)C (centres unmarked) | > 10
35 | CC1CC(C(O)C(C)(C)O)OC2C1C1(C)CCC34CC35CCC(OC3CN(C(=O)c6ccccn6)CCO3)C(C)(C)C5CCC4C1(C)C2O (centres unmarked) | > 10
36 | CCC(=O)OC(C1CC(C)C2C(O1)C(O)C1(C)C3CCC4C(C)(C)C(OC5OCC(O)C(O)C5O)CCC45CC35CCC21C)C(C)(C)O (centres unmarked) | ≤ 1
37 | CC1CC(C(O)C(C)(C)O)OC2C1C1(C)CCC34CC35CCC(OC3CN(C(=O)C6CCC6)CCO3)C(C)(C)C5CCC4C1(C)C2O (centres unmarked) | < 10
38 | COC(=O)C1CC(C)C2C(O1)C(O)C1(C)C3CCC4C(C)(C)C(O)CCC45CC35CCC21C (centres unmarked) | > 10
39 | CC1CC(CNC(C)(C)C)OC2C1C1(C)CCC34CC35CCC(O)C(C)(C)C5CCC4C1(C)C2O (centres unmarked) | > 10
40 | CC(=O)N(CC1CC1)CC1CC(C)C2C(O1)C(O)C1(C)C3CCC4C(C)(C)C(O)CCC45CC35CCC21C (centres unmarked) | > 10
41 | CC(=O)OC(C1CC(C)C2C(O1)C(O)C1(C)C3CCC4C(C)(CCC(O)C4(C)C)C3=CCC21C)C(C)(C)O (centres unmarked) | ≤ 1
